Test results taken from PubChem BioAssay (NCI).
Several values for one entry are separate records, joined by “and”; a condition that tells them apart may be missing. Equal values may be shown once.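 These data come from cells grown in 96-well plates and exposed to compound for 48 hours at five concentrations. Abbreviation: GI50, concentration required for 50% inhibition of growth. Definition used: TGI = concentration required for complete inhibition of growth.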

Assays:
Experiment in all cases: NCI tumour cell line growth inhibition, 48 h
SK-MEL-28 melanoma = system: SK-MEL-28 melanoma
HCT-116 colon = system: HCT-116 colon
ACHN renal = system: ACHN renal
HT29 colon = system: HT29 colon
CAKI-1 renal = system: CAKI-1 renal
KM12 colon = system: KM12 colon
HOP-62 NSCLC = system: HOP-62 NSCLC
NCI/ADR-RES ovarian = system: NCI/ADR-RES ovarian
RXF 393 renal = system: RXF 393 renal
SF-268 CNS = system: SF-268 CNS

Structure (SMILES) | GI50 (SK-MEL-28 melanoma) | TGI (SK-MEL-28 melanoma) | GI50 (HCT-116 colon) | TGI (HCT-116 colon) | GI50 (ACHN renal) | TGI (ACHN renal) | GI50 (HT29 colon) | TGI (HT29 colon) | GI50 (CAKI-1 renal) | TGI (CAKI-1 renal) | GI50 (KM12 colon) | TGI (KM12 colon) | GI50 (HOP-62 NSCLC) | TGI (HOP-62 NSCLC) | GI50 (NCI/ADR-RES ovarian) | TGI (NCI/ADR-RES ovarian) | GI50 (RXF 393 renal) | TGI (RXF 393 renal) | GI50 (SF-268 CNS) | TGI (SF-268 CNS)
O=C(COc1ccc(Cl)cc1Cl)NNc1ccc([N+](=O)[O-])cc1 | 39.1 µM | > 100 µM | 65.3 µM | > 100 µM | 51.5 µM | > 100 µM | > 100 µM | > 100 µM | > 100 µM | > 100 µM | > 100 µM | > 100 µM | 19.7 µM | 38.6 µM | 84 µM | > 100 µM | 17 µM | 39.9 µM | 36.9 µM | > 100 µM
O=[N+]([O-])c1ccc(NC(c2ccccc2)c2ccc3cccnc3c2O)cc1 (stereo not given) | 0.697 µM | > 100 µM | 0.31 µM | > 55.9 µM | 0.351 µM | > 89.9 µM | 0.487 µM | > 100 µM | 0.312 µM |  | 0.449 µM | > 100 µM | 0.537 µM | > 100 µM | 0.288 µM | > 23.4 µM | 0.698 µM | > 100 µM | 0.378 µM | > 100 µM
CN(N=O)N1C(=O)SCC(c2ccccc2)(c2ccccc2)C1=O |  | > 100 µM |  | > 100 µM |  | > 100 µM |  | > 100 µM |  | > 100 µM |  | > 100 µM |  | > 100 µM |  | > 100 µM |  | 59.2 µM |  | > 100 µM
CN1CCN(CCCn2c3c(sc4ncccc43)c(=O)n3nnc(-c4ccccc4)c23)CC1 | 18 µM | 32.2 µM | 1.72 µM | 3.31 µM | 1.54 µM | 3.04 µM | 1.82 µM | 3.88 µM | 1.59 µM | 3.19 µM | 1.55 µM | 3.17 µM | 1.63 µM | 3.4 µM | 1.95 µM | 4.77 µM | 4.4 µM | 8.75 µM | 1.68 µM | 3.32 µM
Cc1cccc(Nc2ncc(-c3ccccc3)o2)c1 | > 25 µM | > 25 µM | > 25 µM | > 25 µM | > 25 µM | > 25 µM | > 25 µM | > 25 µM | > 25 µM | > 25 µM | 8.04 µM | > 25 µM | > 25 µM | > 25 µM | > 25 µM | > 25 µM | > 25 µM | > 25 µM | > 25 µM | > 25 µM
C#Cc1cccc(NC(=O)C2CCCCN2C(=O)CCl)c1 (stereo not given) | 54.1 µM | > 82.5 µM | 13.7 µM | 43.2 µM | 13.1 µM | 24.5 µM | 18.7 µM | 41.9 µM | 13.4 µM | 26.3 µM | 37.1 µM | > 82.5 µM | > 82.5 µM | > 82.5 µM | 16.5 µM | 47.3 µM | 13.4 µM | 34.4 µM | 21.1 µM | 75.2 µM
CNC(=O)c1cc(Oc2ccc(NC(=O)Nc3ccc(Cl)c(C(F)(F)F)c3)cc2)ccn1 | 2.42 µM and 2.59 µM and 2.63 µM | 8.45 µM and 7.23 µM and 7.5 µM | 1.74 µM and 1.5 µM and 1.9 µM | > 10 µM and 4.21 µM and 7.48 µM | 3.22 µM and 3.45 µM and 2.64 µM | > 10 µM and 12 µM and 12.1 µM | 2.54 µM and 2.45 µM and 2.36 µM | > 10 µM and 8.39 µM and 9.02 µM | 3.21 µM and 2.01 µM and 2.91 µM | > 10 µM and 4.3 µM and 8.81 µM | 2.42 µM and 1.86 µM and 1.8 µM | > 10 µM and 8.07 µM and 6.97 µM | 2.78 µM and 2.59 µM and 2.01 µM | > 10 µM and 7.97 µM and 4.81 µM | 3.06 µM and 2.63 µM and 2.65 µM | > 10 µM and 7.89 µM and 15.7 µM | 3.58 µM and 2.88 µM and 3.41 µM | > 10 µM and 9.26 µM and 9.86 µM | 4.15 µM and 2.73 µM and 2.63 µM | > 10 µM and 10.8 µM and 7.88 µM
c1ccc2c(c1)CCCc1nnc3nc4ccccc4n3c1-2 | 9.43 µM | > 100 µM | 3.35 µM | 13.8 µM | 3.65 µM | > 100 µM | 10.1 µM | 82.5 µM | 5.32 µM | > 100 µM | 5.37 µM | 27.6 µM | 4.73 µM | > 100 µM | 3.32 µM | 25.1 µM | 3.08 µM | 32.7 µM | 5.73 µM | > 100 µM
COc1cc(-c2cc(-c3ccc(Nc4nc(Nc5ccc(Cl)cc5)nc(Nc5ccc(Cl)cc5)n4)cc3)no2)cc(OC)c1OC | 14.4 µM | > 100 µM | 4.31 µM | 42.9 µM | 14.9 µM | > 100 µM | 16.9 µM | > 100 µM | 5.53 µM | > 100 µM | 14.2 µM | > 100 µM | 11 µM | 84.2 µM | 11.3 µM | > 100 µM | 0.816 µM | 7.08 µM | 6.05 µM | > 100 µM
C=C1CC2(CC(c3ccccc3C)OC(c3ccccc3C)C2)OC1=O (stereo not given) |  | 4.27 µM |  | 3.21 µM |  | 6.06 µM |  | 3.53 µM |  | 4.26 µM |  | 6.06 µM |  | 26.8 µM |  | 14.3 µM |  | 3.88 µM |  | 3.6 µM
COc1cc2cc(C(=O)Nc3ccccc3)c(N)nc2cc1OC | 75.4 µM | > 100 µM | 40.4 µM | > 100 µM | 39.4 µM | > 100 µM | 51.5 µM | > 100 µM | 34.5 µM | > 100 µM | 46 µM | > 100 µM | 62.6 µM | > 100 µM | 28.4 µM | > 100 µM | 23.7 µM | > 100 µM | 81.8 µM | > 100 µM
C/C=C1/CN2CCC34c5ccccc5N5C(=O)C(C6CC78c9ccccc9N9C(=O)C=CC(C%10CC7N6C/C%10=C/C)C98)=CC(C1CC23)C54 (stereo not given) | 10.1 µM | 11.3 µM and 22.7 µM | 2.3 µM | 12.1 µM and 5.45 µM | 11.7 µM | 13.6 µM and 24.3 µM |  | 9.87 µM and 5.4 µM |  | 21.2 µM and 26.8 µM | 2.94 µM | 36.8 µM and 12.2 µM |  | 20.5 µM and 23.3 µM | 2.57 µM | 50 µM and 10.4 µM |  | 8.57 µM | 4.3 µM | 17.7 µM and 17.2 µM
Cn1cc(-c2[nH]c3cc(NC(=O)[C@H](N)C4CCCCC4)cc4c3c2C=NNC4=O)cn1 | 7.99 µM | 21.9 µM and > 10 µM | 0.399 µM and 0.561 µM | 10.9 µM and > 10 µM | 0.419 µM and 1.06 µM | 8.35 µM and > 10 µM | 1.44 µM and 0.994 µM | 8.24 µM and > 10 µM | 1.8 µM and 0.705 µM | 10.5 µM and > 7.91 µM | 1.66 µM and 0.95 µM | 12.7 µM and > 10 µM | 0.401 µM and 0.343 µM | 12.3 µM and > 10 µM | 9.8 µM | > 74.4 µM | 0.104 µM and 0.187 µM | 0.502 µM and 0.745 µM | 0.305 µM and 0.324 µM | 13.1 µM and > 10 µM
